Data on twelve molecules can be found in patent US8907092B2, “Inhibitors of IAP” (Genentech, Inc., priority 2007, dated 2014).

This test concerns the target T1, MLXBIR3SG (Homo sapiens, UniProt Q96CA5, S150G).
T1 sequence (Q96CA5 with tags, fused parts or gaps S150G): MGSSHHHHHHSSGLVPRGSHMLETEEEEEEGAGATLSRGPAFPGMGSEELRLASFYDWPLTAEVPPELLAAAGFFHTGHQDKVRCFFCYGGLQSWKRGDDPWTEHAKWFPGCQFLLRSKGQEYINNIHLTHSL
Kind of test: Fluorescence Polarization Peptide Binding Assay. As to conditions: competition with 5 nM AVP-diPhe-FAM probe, MLXBIR3SG at 30 nM. As for the experimental part:
In the following experiments was used a chimeric BIR domain referred to as MLXBIR3SG in which 11 of 110 residues correspond to those found in XIAP-BIR3, while the remainder correspond to ML-IAP-BIR. […] The improved caspase-9 inhibition of the chimeric BIR domain MLXBIR3SG has been correlated with increased inhibition of doxorubicin-induced apoptosis when transfected into MCF7 cells.
Polarization experiments were performed on an Analyst HT 96-384 (Molecular Devices Corp.) according to the procedure of Keating, S. M., Marsters, J, Beresini, M., Ladner, C., Zioncheck, K., Clark, K., Arellano, F., and Bodary., S. (2000) in Proceedings of SPIE: In Vitro Diagnostic Instrumentation (Cohn, G. E., Ed.) pp 128-137, Bellingham, Wash. Samples for fluorescence polarization affinity measurements were prepared by addition of 1:2 serial dilutions starting at a final concentration of 5 μM of MLXBIR3SG in polarization buffer (50 mM Tris [pH 7.2], 120 mM NaCl, 1% bovine globulins 5 mM DTT and 0.05% octylglucoside) to 5-carboxyflourescein-conjugated AVPdi-Phe-NH2 (AVP-diPhe-FAM) at 5 nM final concentration.
The reactions were read after an incubation time of 10 minutes at room temperature with standard cut-off filters for the fluorescein fluorophore (λex=485 nm; λem=530 nm) in 96-well black HE96 plates (Molecular Devices Corp.). Fluorescence values were plotted as a function of the protein concentration, and the IC50s were obtained by fitting the data to a 4-parameter equation using Kaleidograph software (Synergy software, Reading, Pa.). Competition experiments were performed by addition of the MLXBIR3SG at 30 nM to wells containing 5 nM of the AVP-diPhe-FAM probe as well as 1:3 serial dilutions of antagonist compounds starting at a concentration of 300 μM in the polarization buffer. Samples were read after a 10-minute incubation. Fluorescence polarization values were plotted as a function of the antagonist concentration, and the IC50 values were obtained by fitting the data to a 4-parameter equation using Kaleidograph software (Synergy software, Reading, Pa.) Inhibition constants (Ki) for the antagonists were determined from the IC50 values.
Background: In fluorescence polarisation assays a small probe gives low polarisation when free and higher when bound to something large.

*1 amine or outer side, *2 acyl side, *3 side chain or, on linkers, in order; H or OH if unused. Where a SMILES comes first, the peptide text is derived from it. Bridges are numbered along the chain shown (N, C = ends). Roman numbers before positions name the chains, in order. [ ]: non-standard residue; d: D form. NH(CH2)3(OCH2CH2)2O(CH2)3NH = C(CN[*:1])COCCOCCOCCCN[*:2]; Dip = N[C@H](C(=O)O)C(c1ccccc1)c1ccccc1; Chg = N[C@H](C(=O)O)C1CCCCC1; NMeA = CN[C@@H](C)C(=O)O; dNMeA = CN[C@H](C)C(=O)O

Broadly, the IC50 is the point on the concentration scale where inhibition reaches its midpoint. As for `CN[C@@H](C)C(=O)N[C@H](C(=O)N1CC(OCc2ccc(C#CC#Cc3ccc(CO[C@H]4C[C@@H](C(=O)Nc5snnc5-c5ccccc5)N(C(=O)[C@@H](NC(=O)[C@H](C)NC)C5CCCCC5)C4)cc3)cc2)C[C@H]1C(=O)Nc1snnc1-c1ccccc1)C1CCCCC1` (stereo partly drawn) [compound 4], the IC50 was 2410 nM.

On to `CN[C@@H](C)C(=O)N[C@H](C(=O)N1CCC[C@H]1C(=O)Nc1sc(C(=O)NCC(O)CNC(=O)c2nc(-c3ccccc3)c(NC(=O)[C@@H]3CCCN3C(=O)[C@@H](NC(=O)[C@H](C)NC)C3CCCCC3)s2)nc1-c1ccccc1)C1CCCCC1` [compound 22], for which the 50% inhibitory concentration (IC50) came to 378 nM.

As for `CN[C@@H](C)C(=O)N[C@H](C(=O)N1CCC[C@H]1C(=O)Nc1sc(-c2nccn2C)nc1-c1ccccc1)c1ccc(OCC#CC#CCOc2ccc([C@H](NC(=O)[C@H](C)NC)C(=O)N3CCC[C@H]3C(=O)Nc3sc(-c4nccn4C)nc3-c3ccccc3)cc2)cc1` [compound 12], the half-inhibitory concentration (IC50) was determined as 1100 nM.

Take `CN[C@@H](C)C(=O)N[C@H](C(=O)N1CCC[C@H]1C(=O)Nc1sc(C(=O)NCCCCCCCCCCCNC(=O)c2nc(-c3ccccc3)c(NC(=O)[C@@H]3CCCN3C(=O)[C@@H](NC(=O)[C@H](C)NC)C3CCCCC3)s2)nc1-c1ccccc1)C1CCCCC1` [compound 15]: the IC50 came out at 3830 nM.

As for `CN[C@@H](C)C(=O)N[C@H](C(=O)N1CCC[C@H]1C(=O)Nc1sc(C(=O)NCCOCCOCCNC(=O)c2nc(-c3ccccc3)c(NC(=O)[C@@H]3CCCN3C(=O)[C@@H](NC(=O)[C@H](C)NC)C3CCCCC3)s2)nc1-c1ccccc1)C1CCCCC1` [compound 16], the half-inhibitory concentration (IC50) is 234 nM.

In the case of `CN[C@@H](C)C(=O)N[C@H](C(=O)N1CCC[C@H]1C(=O)Nc1sc(-c2ccccn2)nc1-c1ccccc1)c1ccc(OCC#CC#CCOc2ccc([C@H](NC(=O)[C@H](C)NC)C(=O)N3CCC[C@H]3C(=O)Nc3sc(-c4nccn4C)nc3-c3ccccc3)cc2)cc1` [compound 13], the IC50 was determined as 3820 nM.

For `CN[C@@H](C)C(=O)N[C@H](C(=O)N1CCC[C@H]1C(=O)Nc1sc(-c2nccs2)nc1-c1ccccc1)c1ccc(OCC#CC#CCOc2ccc([C@H](NC(=O)[C@H](C)N)C(=O)N3CCC[C@H]3C(=O)Nc3sc(-c4nccs4)nc3-c3ccccc3)cc2)cc1` [compound 11], the half-maximal inhibitory concentration (IC50) came out at 1030 nM.

On to `CN[C@@H](C)C(=O)N[C@H](C(=O)N1CCC[C@H]1C(=O)Nc1sc(C(=O)NCc2ccc(CNC(=O)c3nc(-c4ccccc4)c(NC(=O)C4CCCN4C(=O)[C@H](NC(=O)[C@@H](C)NC)C4CCCCC4)s3)cc2)nc1-c1ccccc1)C1CCCCC1` (stereo partly drawn) [compound 24], for which the half-maximal inhibitory concentration (IC50) came out at 1380 nM.

As for `CN[C@@H](C)C(=O)N[C@H](C(=O)N1CCC[C@H]1C(=O)Nc1sc(C(=O)NCC(C)(C)CNC(=O)c2nc(-c3ccccc3)c(NC(=O)[C@@H]3CCCN3C(=O)[C@@H](NC(=O)[C@H](C)NC)C3CCCCC3)s2)nc1-c1ccccc1)C1CCCCC1` [compound 23], the IC50 was 679 nM.

For the molecule `CN[C@@H](C)C(=O)N[C@H](C(=O)N1CCC[C@H]1C(=O)Nc1sc(-c2ccccn2)nc1-c1ccccc1)c1ccc(OCC#CC#CCOc2ccc([C@H](NC(=O)[C@H](C)NC)C(=O)N3CCC[C@H]3C(=O)Nc3sc(-c4ccccn4)nc3-c3ccccc3)cc2)cc1` [compound 14], the concentration for half-maximal inhibition (IC50) is 2350 nM.

On to `CN[C@@H](C)C(=O)N[C@H](C(=O)C1CCCN1c1nc2c(-c3ccccc3)nccc2s1)C1CCN(C(=O)NCCCCCCNC(=O)N2CCC([C@H](NC(=O)[C@H](C)NC)C(=O)N3CCC[C@H]3c3nc4c(-c5ccccc5)nccc4s3)CC2)CC1` (stereo partly drawn) [compound 17], for which the IC50 came out at 168 nM.

As for `CN[C@@H](C)C(=O)N[C@H](C(=O)N1CCC[C@H]1C(=O)N[C@H](C(=O)NCCCOCCOCCOCCCNC(=O)[C@@H](NC(=O)[C@@H]1CCCN1C(=O)[C@@H](NC(=O)[C@@H](C)NC)C1CCCCC1)C(c1ccccc1)c1ccccc1)C(c1ccccc1)c1ccccc1)C1CCCCC1` [compound 10] (I: H-[NMeA][Chg]P[Dip] / II: H-[dNMeA][Chg]P[Dip]; linker I:C-II:C via NH(CH2)3(OCH2CH2)2O(CH2)3NH), the half-inhibitory concentration (IC50) worked out at 1320 nM.
